Laboratory results from patent US6514517B2, “Antimicrobial coatings for medical devices” (Ethicon, Inc., priority 2001, dated 2003).

System: Staphylococcus aureus ATCC33591
Assay: Kirby-Bauer type test, coated suture sections on seeded agar plates
Assay type: cell-based
Protocol: In order to further evaluate the in-vitro potential for pH-lowering coatings, a study was carried out with Staphylococcus aureus ATCC33591. A series of coatings was prepared by dissolving 2.5, 5, 10 and 20 percent (w/w) of L(−)-lactide, respectively, in ethyl acetate. A second series of coatings was prepared by dissolving 2.5, 5, 10 and 20 percent (w/w) of L(−)-lactide in combination with 9 percent (w/w) polyoxaester, respectively, in ethyl acetate.
The polyoxaester coating copolymer used was a poly(ethylene 3,6,9-trioxaundecanedioate-seg-caprolactone-co-glycolide) resin comprised of approximately 17 weight percent polyoxaester prepolymer and a 83 weight percent polymerized mixture of approximately 91 mole percent ε-caprolactone and 9 mole percent glycolide. The polyoxaester is a polycondensation product of 3,6,9-trioxaundecanedioic acid and ethylene glycol made to have hydroxyl functionalities at both ends of each chain. The final resin is made through a ring opening polymerization of the ε-caprolactone and glycolide mixture using the polyoxaester as an α,ω-dihydroxy-macroinitiator. The inherent viscosity of the coating copolymer was 0.55 dL/g as determined in hexafluoroisopropanol (HFIP) at 25° C. at a concentration of 0.1 g/dL.
A third series of coatings was prepared by dissolving 2.5, 5, 10 and 20 percent (w/w) of glycolide, respectively, in ethyl acetate. A fourth series of coatings was prepared by dissolving 2.5, 5, 10 and 20 percent (w/w) of glycolide in combination with 9 percent (w/w) polyoxaester coating copolymer, respectively, in ethyl acetate. Approximately one-inch sections of commercial size 2/0 synthetic absorbable braided [10/90 poly(lactide-co-glycolide)] suture were dipped into the solutions and were dried overnight in a laminar flow hood, thereby providing a coated suture according to the present invention. In a Kirby-Bauer type test, plates were seeded with a 24-hour culture of Staph. aureus. The coated suture sections were placed on agar plates and the plates were incubated at 30-35° C. for 24 hours. […] For sutures coated from solutions comprising 2.5 percent and 5 percent lactide, respectively, zones of inhibition extending approximately 1 mm from the coated suture were observed. […] Utilizing a 20 percent lactide coating solution, the zone of inhibition was greater than 1 mm. All other coatings yielded results approximately the same as those obtained from a 10 percent lactide coating solution.
Referring to FIG. 3, a one inch-section of suture 30 coated with a solution of 20 percent by weight lactide in ethyl acetate was placed on a seeded agar plate and incubated as above. […] Referring to FIG. 2, when a section of untreated suture 20 is placed on a seeded agar plate and incubated as above, microorganisms 22 are present immediate and adjacent to the untreated suture and no zone of inhibition is noted around the suture.

[1] = 2/0 braided 10/90 poly(lactide-co-glycolide) suture coated from 2.5 percent solution in ethyl acetate, 30-35° C., 24 hours
[2] = 2/0 braided 10/90 poly(lactide-co-glycolide) suture coated from 5 percent solution in ethyl acetate, 30-35° C., 24 hours
[3] = 2/0 braided 10/90 poly(lactide-co-glycolide) suture coated from 10 percent solution in ethyl acetate, 30-35° C., 24 hours

Compound	zones of inhibition extending from the coated suture [1]	zones of inhibition extending from the coated suture [2]	zones of inhibition extending from the coated suture [3]	zone of inhibition extending from the coated suture (2/0 braided 10/90 poly(lactide-co-glycolide) suture coated from 20 percent solution in ethyl acetate, 30-35° C., 24 hours)	zone of inhibition (FIG. 3, in words) (one inch-section of suture coated with 20 percent by weight solution in ethyl acetate)
C[C@@H]1OC(=O)[C@H](C)OC1=O [L(−)-lactide]	approximately 1 mm	approximately 1 mm	approximately 1 mm	greater than 1 mm	Zone of inhibition 34 clearly surrounds coated suture 30
O=C1COC(=O)CO1 [glycolide]	less than 1 mm	less than 1 mm	approximately 1 mm		
